According to patent publication US20040063580A1, “Bicyclic triazolone derivatives and a herbicides containing the same” (priority 2000, published 2004):
“And” between values parts separate entries of the source, which are not always exact repeats. Equal entries are not always repeated.

Experiments:
tall morningglory = assay: Herbicidal effects against weeds (post emergence), tall morningglory; assay type: in vivo; conditions: post emergence spray, evaluated two weeks after treatment
Description: (§1) Herbicidal Effects Against Weeds (Post Emergence)
(§2) After filling 300 g field soil in jiffypot™ having diameter of 10 cm, the soil was steam sterilized. Seeds of velvetleaf, redroot pigweed, tall morningglory and corn onto the surface of the soil were scattered, and then covered with the soil to a thickness of 0.5 cm for the weed, 1 cm for the crop. When the weed and the crop reached the designated growth stage, they were treated with the compound to be tested.
(§3) Preparation of the Test Solution and the Method of Treatment
(§4) The compound to be tested was dissolved in acetone which contain Tween 20™ and diluted with deionized water to prepare the test solution for 10 g/a and 1 g/a use. The test solution was sprayed on the pots in a device for spraying using spraygun.
(§5) Method of Indicating the Effect and Phytotoxicity
(§6) The effect of the compound tested on the weeds and phytotoxicity on the crops were evaluated two weeks after treatment with the compound as 6 grades from 0 to 5 shown in the Table 9 and 10.
(§7) In the Table 11 and 12, the herbicidal effects were indicated by the following evaluation index.

velvetleaf = assay: Herbicidal effects against weeds (post emergence), velvetleaf; assay type: in vivo; conditions: post emergence spray, evaluated two weeks after treatment
Description: as §1, §2, §3, §4, §5, §6, §7

corn = assay: Post emergence test, phytotoxicity on the crop corn; assay type: in vivo; conditions: post emergence spray, evaluated two weeks after treatment
Description: as §1, §2, §3, §4, §5, §6
The phytotoxicity was indicated by the following evaluation index.

redroot pigweed = assay: Herbicidal effects against weeds (post emergence), redroot pigweed; assay type: in vivo; conditions: post emergence spray, evaluated two weeks after treatment
Description: as §1, §2, §3, §4, §5, §6, §7

| SMILES | Evaluation index Tall morning glory (tall morningglory; 10 g/a) | Evaluation index Velvet leaf (velvetleaf; 10 g/a) | Evaluation index Corn (phytotoxicity) (corn; 1 g/a) | Evaluation index Tall morning glory (tall morningglory; 1 g/a) | melting point | Evaluation index Velvet leaf (velvetleaf; 1 g/a) | Evaluation index Corn (phytotoxicity) (corn; 10 g/a) | Evaluation index Redroot pigweed (redroot pigweed; 10 g/a) | Evaluation index Redroot pigweed (redroot pigweed; 1 g/a) |
| --- | --- | --- | --- | --- | --- | --- | --- | --- | --- |
| CCOC(=O)COc1cc(-n2nc3ccc(Cl)cn3c2=O)c(F)cc1Cl [A-27] | 5 (maximum *all dead) 100) | 5 (maximum *all dead) 100) |  |  |  |  |  |  |  |
| CCOC(=O)CSc1cc(-n2nc3ccc(Cl)cn3c2=O)c(F)cc1C#N [A-19] | 5 (maximum *all dead) 100) | 5 (maximum *all dead) 100) |  |  |  |  |  |  |  |
| CCS(=O)(=O)Nc1cc(-n2nc3c(Cl)cccn3c2=O)c(F)cc1C#N [A-48] | 5 (maximum *all dead) 100) | 5 (maximum *all dead) 100) |  |  |  |  |  |  |  |
| CCS(=O)(=O)Nc1cc(-n2nc3ccc(Cl)cn3c2=O)c(F)cc1C#N [Compound No. A-3, 6-Chloro-2-(4-cyano-5-ethanesulfonylamino-2-fluorophenyl)-1,2,4-triazolo[4,3-a]pyridin-3(2H)-one] |  |  | 1 (small 0.1 to 12.5) | 4 (maximum 87.6 to 99.9) | 220 to 222 °C | 5 (maximum *all dead) 100) |  |  |  |
| CCS(=O)(=O)Nc1cc(-n2nc3ccc(Cl)cn3c2=O)c(F)cc1Cl [Compound No. A-35, 6-Chloro-2-(4-chloro-5-ethanesulfonylamino-2-fluorophenyl)-1,2,4-triazolo[4,3-a]pyridin-3(2H)-one] |  | 5 (maximum *all dead) 100) |  |  | 121 to 123 °C and 120 to 122 °C |  | 1 (small 0.1 to 12.5) | 5 (maximum *all dead) 100) |  |
| CCS(=O)(=O)Nc1cc(-n2nc3n(c2=O)CCCS3)c(F)cc1C#N [Compound No. E-1, 5,6-Dihydro-2-(4-cyano-5-ethylsulfonylamino-2-fluorophenyl)-7H-[1,2,4]triazolo[3,4-b][1,3]thiazin-3(2H)-one] |  | 5 (maximum *all dead) 100) | 1 (small 0.1 to 12.5) |  | 193 to 195 °C | 5 (maximum *all dead) 100) | 1 (small 0.1 to 12.5) | 5 (maximum *all dead) 100) | 5 (maximum *all dead) 100) |
| C#CCOc1cc(-n2nc3n(c2=O)CCCN3)c(F)cc1Cl [Compound No. F-1, 5,6,7,8-Tetrahydro-2-(4-chloro-2-fluoro-5-propargyloxyphenyl)-[1,2,4]triazolo[4,3-a]pyrimidin-3(2H)-one] |  | 5 (maximum *all dead) 100) | 3 (big 25.1 to 50.0) |  | 172 to 174 °C | 4 (maximum 87.6 to 99.9) | 3 (big 25.1 to 50.0) | 5 (maximum *all dead) 100) | 5 (maximum *all dead) 100) |
| C#CCOc1cc(-n2nc3ccc(Cl)cn3c2=O)c(F)cc1Cl [Compound No. A-25, 6-Chloro-2-(4-chloro-2-fluoro-5-propargyloxyphenyl)-1,2,4-triazolo[4,3-a]pyridin-3(2H)-one] | 5 (maximum *all dead) 100) | 5 (maximum *all dead) 100) | 0 (no effect 0) | 5 (maximum *all dead) 100) | 145 to 148 °C | 5 (maximum *all dead) 100) | 1 (small 0.1 to 12.5) |  |  |
| CCS(=O)(=O)Nc1cc(-n2nc3ccc(C)cn3c2=O)c(F)cc1C#N [A-50] | 5 (maximum *all dead) 100) | 5 (maximum *all dead) 100) |  |  |  |  |  |  |  |
